# Laboratory results from ChEMBL document CHEMBL3132744, “Structureactivity relationship studies of miniproteins targeting the androgen receptorcoactivator interaction” (Medchemcomm, 2013).
# Square brackets hold non-standard residues; d marks the D form. Peptide text beside a SMILES is read from it. Phe(4-Cl) = N[C@@H](Cc1ccc(Cl)cc1)C(=O)O; Cha = N[C@@H](CC1CCCCC1)C(=O)O
# Biological target: T1, Androgen receptor (Homo sapiens, UniProt P10275)
# T1 sequence (P10275 whole entry): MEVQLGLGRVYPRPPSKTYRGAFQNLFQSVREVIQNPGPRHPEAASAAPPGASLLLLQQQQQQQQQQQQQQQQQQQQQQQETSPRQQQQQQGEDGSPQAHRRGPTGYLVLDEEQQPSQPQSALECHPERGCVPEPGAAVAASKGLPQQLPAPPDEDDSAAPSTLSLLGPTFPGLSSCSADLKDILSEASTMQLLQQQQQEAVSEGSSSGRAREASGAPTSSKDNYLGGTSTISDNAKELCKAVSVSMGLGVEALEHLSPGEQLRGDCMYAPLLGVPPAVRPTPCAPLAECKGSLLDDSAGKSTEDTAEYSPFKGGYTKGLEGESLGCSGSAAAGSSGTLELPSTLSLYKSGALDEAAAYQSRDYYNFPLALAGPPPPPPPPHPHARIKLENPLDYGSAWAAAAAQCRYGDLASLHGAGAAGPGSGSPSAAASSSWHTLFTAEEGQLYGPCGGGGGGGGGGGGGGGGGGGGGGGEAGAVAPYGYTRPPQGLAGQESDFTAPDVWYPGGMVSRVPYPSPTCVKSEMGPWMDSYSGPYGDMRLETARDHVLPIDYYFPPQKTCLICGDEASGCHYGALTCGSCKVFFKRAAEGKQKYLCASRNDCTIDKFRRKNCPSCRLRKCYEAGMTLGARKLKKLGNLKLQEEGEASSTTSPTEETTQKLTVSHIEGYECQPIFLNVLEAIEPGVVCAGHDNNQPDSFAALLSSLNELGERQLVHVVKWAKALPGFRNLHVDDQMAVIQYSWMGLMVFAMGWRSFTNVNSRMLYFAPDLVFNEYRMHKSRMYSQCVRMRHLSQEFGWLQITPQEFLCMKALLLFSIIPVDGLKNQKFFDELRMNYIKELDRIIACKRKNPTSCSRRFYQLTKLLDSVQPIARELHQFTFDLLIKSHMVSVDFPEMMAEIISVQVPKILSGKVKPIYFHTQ
# Test: Displacement of fluorescein-CSSRFESLFAGEKESR from human androgen receptor-LBD after 1 hr by fluorescence polarization assay
row,Structure (SMILES),Ki
1,CC(C)C[C@H](NC(=O)[C@H](CS)NC(=O)[C@H](CC(N)=O)NC(=O)[C@H](Cc1ccccc1)NC(=O)[C@H](Cc1ccc(O)cc1)NC(=O)[C@H](CS)NC(=O)[C@H](C)N)C(=O)N[C@@H](Cc1ccccc1)C(=O)N[C@@H](CCC(=O)O)C(=O)NCC(=O)N[C@@H](CC(N)=O)C(=O)N[C@@H](CC(=O)O)C(=O)N[C@@H](CCC(=O)O)C(=O)N[C@@H](CCC(=O)O)C(=O)N[C@H](C(=O)N[C@@H](CS)C(=O)N[C@@H](CCCCN)C(=O)N[C@@H](CCC(=O)O)C(=O)N[C@@H](Cc1c[nH]c2ccccc12)C(=O)N[C@@H](CS)C(=O)O)[C@@H](C)O (H-ACYFNCLFEGNDEETCKEWC-OH),1700 nM
2,CC[C@H](C)[C@H](NC(=O)[C@H](CS)NC(=O)[C@H](Cc1ccccc1)NC(=O)[C@H](CC(C)C)NC(=O)[C@H](CCC(=O)O)NC(=O)[C@H](CS)NC(=O)[C@H](Cc1ccccc1)NC(=O)[C@H](CCCNC(=N)N)NC(=O)[C@@H](N)CC(N)=O)C(=O)N[C@@H](CCC(N)=O)C(=O)NCC(=O)N[C@H](C(=O)NCC(=O)N[C@@H](CC(=O)O)C(=O)N[C@H](C(=O)N[C@@H](CCCCN)C(=O)N[C@@H](C)C(=O)N[C@@H](CS)C(=O)N[C@@H](CCC(=O)O)C(=O)N[C@@H](CCC(=O)O)C(=O)N[C@@H](C)C(=O)N[C@@H](CS)C(=O)N[C@@H](CCC(N)=O)C(=O)O)C(C)C)[C@@H](C)O (H-NRFCELFCIQGTGDVKACEEACQ-OH),1300 nM
3,CC(C)C[C@H](NC(=O)[C@H](CS)NC(=O)[C@H](CC(N)=O)NC(=O)[C@H](Cc1ccc(Cl)cc1)NC(=O)[C@H](Cc1ccc(O)cc1)NC(=O)[C@H](CS)NC(=O)[C@H](C)N)C(=O)N[C@@H](Cc1ccccc1)C(=O)N[C@@H](CCC(=O)O)C(=O)NCC(=O)N[C@@H](CC(N)=O)C(=O)N[C@@H](CC(=O)O)C(=O)N[C@@H](CCC(=O)O)C(=O)N[C@@H](CCC(=O)O)C(=O)N[C@H](C(=O)N[C@@H](CS)C(=O)N[C@@H](CCCCN)C(=O)N[C@@H](CCC(=O)O)C(=O)N[C@@H](Cc1c[nH]c2ccccc12)C(=O)N[C@@H](CS)C(=O)O)[C@@H](C)O (H-ACY[Phe(4-Cl)]NCLFEGNDEETCKEWC-OH),3000 nM
4,CC(C)C[C@H](NC(=O)[C@H](CS)NC(=O)[C@@H](NC(=O)[C@H](Cc1ccccc1)NC(=O)[C@H](Cc1ccc(O)cc1)NC(=O)[C@H](CS)NC(=O)[C@H](C)N)C(C)C)C(=O)N[C@@H](Cc1ccccc1)C(=O)N[C@@H](CCC(=O)O)C(=O)NCC(=O)N[C@@H](CC(N)=O)C(=O)N[C@@H](CC(=O)O)C(=O)N[C@@H](CCC(=O)O)C(=O)N[C@@H](CCC(=O)O)C(=O)N[C@H](C(=O)N[C@@H](CS)C(=O)N[C@@H](CCCCN)C(=O)N[C@@H](CCC(=O)O)C(=O)N[C@@H](Cc1c[nH]c2ccccc12)C(=O)N[C@@H](CS)C(=O)O)[C@@H](C)O (H-ACYFVCLFEGNDEETCKEWC-OH),3000 nM
5,CC[C@H](C)[C@H](NC(=O)[C@H](CS)NC(=O)[C@H](Cc1ccccc1)NC(=O)[C@H](CC(C)C)NC(=O)[C@H](CCCCN)NC(=O)[C@H](CS)NC(=O)[C@H](Cc1ccccc1)NC(=O)[C@H](CCCNC(=N)N)NC(=O)[C@@H](N)CC(N)=O)C(=O)N[C@@H](CCC(N)=O)C(=O)NCC(=O)N[C@H](C(=O)NCC(=O)N[C@@H](CC(=O)O)C(=O)N[C@H](C(=O)N[C@@H](CCCCN)C(=O)N[C@@H](C)C(=O)N[C@@H](CS)C(=O)N[C@@H](CCC(=O)O)C(=O)N[C@@H](Cc1c[nH]c2ccccc12)C(=O)N[C@@H](C)C(=O)N[C@@H](CS)C(=O)N[C@@H](CCC(N)=O)C(=O)O)C(C)C)[C@@H](C)O (H-NRFCKLFCIQGTGDVKACEWACQ-OH),2700 nM
6,CC(C)C[C@H](NC(=O)[C@H](CCC(=O)O)NC(=O)[C@H](CS)NC(=O)[C@H](Cc1ccccc1)NC(=O)[C@H](CCCNC(=N)N)NC(=O)[C@@H](N)CC(N)=O)C(=O)N[C@@H](Cc1ccccc1)C(=O)N[C@@H](CS)C(=O)N[C@@H](Cc1ccccc1)C(=O)N[C@@H](CCC(N)=O)C(=O)NCC(=O)N[C@H](C(=O)NCC(=O)N[C@@H](CC(=O)O)C(=O)N[C@H](C(=O)N[C@@H](CCCCN)C(=O)N[C@@H](C)C(=O)N[C@@H](CS)C(=O)N[C@@H](CCC(=O)O)C(=O)N[C@@H](Cc1c[nH]c2ccccc12)C(=O)N[C@@H](C)C(=O)N[C@@H](CS)C(=O)N[C@@H](CCC(N)=O)C(=O)O)C(C)C)[C@@H](C)O (H-NRFCELFCFQGTGDVKACEWACQ-OH),3600 nM
7,CC[C@H](C)[C@H](NC(=O)[C@H](CS)NC(=O)[C@H](Cc1ccccc1)NC(=O)[C@H](CC(C)C)NC(=O)[C@H](CCC(=O)O)NC(=O)[C@H](CS)NC(=O)[C@H](Cc1ccccc1)NC(=O)[C@H](CCCNC(=N)N)NC(=O)[C@@H](N)CCCCN)C(=O)N[C@@H](CCC(N)=O)C(=O)NCC(=O)N[C@H](C(=O)NCC(=O)N[C@@H](CC(=O)O)C(=O)N[C@H](C(=O)N[C@@H](CCCCN)C(=O)N[C@@H](C)C(=O)N[C@@H](CS)C(=O)N[C@@H](CCC(=O)O)C(=O)N[C@@H](Cc1c[nH]c2ccccc12)C(=O)N[C@@H](C)C(=O)N[C@@H](CS)C(=O)N[C@@H](CCC(N)=O)C(=O)O)C(C)C)[C@@H](C)O (H-KRFCELFCIQGTGDVKACEWACQ-OH),1900 nM
8,CC[C@H](C)[C@H](NC(=O)[C@H](CS)NC(=O)[C@H](CC1CCCCC1)NC(=O)[C@H](CC(C)C)NC(=O)[C@H](CCC(=O)O)NC(=O)[C@H](CS)NC(=O)[C@H](Cc1ccccc1)NC(=O)[C@H](CCCNC(=N)N)NC(=O)[C@@H](N)CC(N)=O)C(=O)N[C@@H](CCC(N)=O)C(=O)NCC(=O)N[C@H](C(=O)NCC(=O)N[C@@H](CC(=O)O)C(=O)N[C@H](C(=O)N[C@@H](CCCCN)C(=O)N[C@@H](C)C(=O)N[C@@H](CS)C(=O)N[C@@H](CCC(=O)O)C(=O)N[C@@H](Cc1c[nH]c2ccccc12)C(=O)N[C@@H](C)C(=O)N[C@@H](CS)C(=O)N[C@@H](CCC(N)=O)C(=O)O)C(C)C)[C@@H](C)O (H-NRFCEL[Cha]CIQGTGDVKACEWACQ-OH),56000 nM
9,CC(C)C[C@H](NC(=O)[C@H](CS)NC(=O)[C@H](CC(N)=O)NC(=O)[C@H](CC1CCCCC1)NC(=O)[C@H](Cc1ccc(O)cc1)NC(=O)[C@H](CS)NC(=O)[C@H](C)N)C(=O)N[C@@H](Cc1ccccc1)C(=O)N[C@@H](CCC(=O)O)C(=O)NCC(=O)N[C@@H](CC(N)=O)C(=O)N[C@@H](CC(=O)O)C(=O)N[C@@H](CCC(=O)O)C(=O)N[C@@H](CCC(=O)O)C(=O)N[C@H](C(=O)N[C@@H](CS)C(=O)N[C@@H](CCCCN)C(=O)N[C@@H](CCC(=O)O)C(=O)N[C@@H](Cc1c[nH]c2ccccc12)C(=O)N[C@@H](CS)C(=O)O)[C@@H](C)O (H-ACY[Cha]NCLFEGNDEETCKEWC-OH),3000 nM
10,CC[C@H](C)[C@H](NC(=O)[C@H](CS)NC(=O)[C@H](Cc1ccccc1)NC(=O)[C@H](CC(C)C)NC(=O)[C@H](CCC(=O)O)NC(=O)[C@H](CS)NC(=O)[C@H](CC1CCCCC1)NC(=O)[C@H](CCCNC(=N)N)NC(=O)[C@@H](N)CC(N)=O)C(=O)N[C@@H](CCC(N)=O)C(=O)NCC(=O)N[C@H](C(=O)NCC(=O)N[C@@H](CC(=O)O)C(=O)N[C@H](C(=O)N[C@@H](CCCCN)C(=O)N[C@@H](C)C(=O)N[C@@H](CS)C(=O)N[C@@H](CCC(=O)O)C(=O)N[C@@H](Cc1c[nH]c2ccccc12)C(=O)N[C@@H](C)C(=O)N[C@@H](CS)C(=O)N[C@@H](CCC(N)=O)C(=O)O)C(C)C)[C@@H](C)O (H-NR[Cha]CELFCIQGTGDVKACEWACQ-OH),11000 nM
11,CC(C)C[C@H](NC(=O)[C@H](CC(C)C)NC(=O)[C@H](CS)NC(=O)[C@H](CC(N)=O)NC(=O)[C@H](CC(C)C)NC(=O)[C@H](Cc1ccc(O)cc1)NC(=O)[C@H](CS)NC(=O)[C@H](C)N)C(=O)N[C@@H](CCC(=O)O)C(=O)NCC(=O)N[C@@H](CC(N)=O)C(=O)N[C@@H](CC(=O)O)C(=O)N[C@@H](CCC(=O)O)C(=O)N[C@@H](CCC(=O)O)C(=O)N[C@H](C(=O)N[C@@H](CS)C(=O)N[C@@H](CCCCN)C(=O)N[C@@H](CCC(=O)O)C(=O)N[C@@H](Cc1c[nH]c2ccccc12)C(=O)N[C@@H](CS)C(=O)O)[C@@H](C)O (H-ACYLNCLLEGNDEETCKEWC-OH),1400 nM
12,CC[C@H](C)[C@H](NC(=O)[C@H](CS)NC(=O)[C@H](Cc1ccccc1)NC(=O)[C@H](CC(C)C)NC(=O)[C@H](CCC(=O)O)NC(=O)[C@H](CS)NC(=O)[C@H](Cc1ccccc1)NC(=O)[C@H](CCCNC(=N)N)NC(=O)[C@@H](N)CO)C(=O)N[C@@H](CCC(N)=O)C(=O)NCC(=O)N[C@H](C(=O)NCC(=O)N[C@@H](CC(=O)O)C(=O)N[C@H](C(=O)N[C@@H](CCCCN)C(=O)N[C@@H](C)C(=O)N[C@@H](CS)C(=O)N[C@@H](CCC(=O)O)C(=O)N[C@@H](Cc1c[nH]c2ccccc12)C(=O)N[C@@H](C)C(=O)N[C@@H](CS)C(=O)N[C@@H](CCC(N)=O)C(=O)O)C(C)C)[C@@H](C)O (H-SRFCELFCIQGTGDVKACEWACQ-OH),2500 nM
